Assays:
[1] = test system: Arabidopsis overexpression line Arabidopsis HPPD; assay: Germination assay in 48-well plates; assay type: in vivo, Arabidopsis thaliana; details: plant growth IC50 transgenic / wildtype, mean of 5 T2 events
Procedure: (§1) Depending on the species, the plants are kept at 10-25° C. or 20-35° C. The test period extends over 3 weeks. During this time, the plants are tended and their response to the individual treatments is evaluated. Herbicide injury evaluations are taken at 2 and 3 weeks after treatment. Plant injury is rated on a scale of 0 to 9, 0 being no injury and 9 being complete death. Tolerance to HPPD-inhibiting, preferably pyrazolone, isoxazole, or triketone derivative herbicides can also be assessed in Arabidopsis. In this case transgenic Arabidopsis thaliana plants are assayed for improved tolerance to HPPD-inhibiting, preferably pyrazolone, isoxazole, or triketone derivative herbicides in 48-well plates. Seeds are surface sterilized by stirring for 5 min in ethanol+water (70+30 by volume), rinsing one time with ethanol+water (70+30 by volume) and two times with a sterile, deionized water. The seeds are resuspended in 0.1% agar dissolved in water (w/v). Four to five seeds per well are plated on solid nutrient medium consisting of half-strength Murashige Skoog nutrient solution, pH 5.8 (Murashige and Skoog (1962) Physiologia Plantarum 15: 473-497). Compounds are dissolved in dimethylsulfoxid (DMSO) and added to the medium prior solidification (final DMSO concentration 0.1%). Multi well plates are incubated in a growth chamber at 22° C., 75% relative humidity and 110 μmol Phot*m−2*s−1 with 14:10 h light:dark photoperiod. Seven to ten days after seeding growth inhibition is evaluated by comparison to wild type plants. Tolerance factor is calculated by dividing the plant growth IC50 value of transgenic plants containing a HPPD and/or HST sequence by that of wildtype plants.

[2] = test system: Arabidopsis overexpression line Synechocystis HPPD; assay: Germination assay in 48-well plates; assay type: in vivo, Arabidopsis thaliana; details: IC50 transgenic / wildtype, mean of 5 T2 events
Procedure: as §1

[3] = test system: Arabidopsis wild-type control; assay: Germination assay in 48-well plates; assay type: in vivo, Arabidopsis thaliana; details: plant growth IC50 ratio to wildtype, mean of 5 T2 events
Procedure: as §1

[4] = test system: transgenic soybean plants AtHPPD I393L L385V, event SDS-9908; assay: Greenhouse testing of soybean plants; assay type: in vivo, Glycine max; details: soybean AtHPPD I393L L385V SDS-9908, 14 days, average of 8 T1 individuals
Procedure: (§2) Transgenic plants expressing heterologous HPPD or HST enzymes are tested for tolerance against HPPD-inhibiting, preferably pyrazolone, isoxazole, or triketone derivative herbicides in greenhouse experiments.
(§3) For post emergence treatment, the test plants are first grown to a height of 3 to 15 cm, depending on the plant habit, and only then treated with the herbicides. For this purpose, the test plants are either sown directly and grown in the same containers, or they are first grown separately and transplanted into the test containers a few days prior to treatment.
(§4) For testing of T0 plants, cuttings can be used. In the case of soybean plants, an optimal shoot for cutting is about 7.5 to 10 cm tall, with at least two nodes present. Each cutting is taken from the original transformant (mother plant) and dipped into rooting hormone powder (indole-3-butyric acid, IBA). The cutting is then placed in oasis wedges inside a bio-dome. Wild type cuttings are also taken simultaneously to serve as controls. The cuttings are kept in the bio-dome for 5-7 days and then transplanted to pots and then acclimated in the growth chamber for two more days. Subsequently, the cuttings are transferred to the greenhouse, acclimated for approximately 4 days, and then subjected to spray tests as indicated.
as §1
(§5) Transgenic soy plants were sprayed with a range of doses from 6.25-100 g/ha with an HPPD-inhibiting herbicide and injury evaluations were taken two weeks after treatment. […] Compared to the untransformed wild-type, plants comprising polynucleotides encoding for Arabidopsis HPPD wild-type or mutated versions thereof were less susceptible to Inhibitor 1.

[5] = test system: transgenic soybean plants AtHPPD M335Y, event SDS-9866; assay: Greenhouse testing of soybean plants; assay type: in vivo, Glycine max; details: soybean AtHPPD M335Y SDS-9866, 14 days, average of 8 T1 individuals
Procedure: as §2, §3, §4, §1, §5

[6] = test system: transgenic soybean plants AtHPPD Q293S, event SDS-9928; assay: Greenhouse testing of soybean plants; assay type: in vivo, Glycine max; details: soybean AtHPPD Q293S SDS-9928, 14 days, average of 8 T1 individuals
Procedure: as §2, §3, §4, §1, §5

[7] = test system: transgenic soybean plants AtHPPD, event SDS-10248; assay: Greenhouse testing of soybean plants; assay type: in vivo, Glycine max; details: for Injury evaluation (bleaching phenotype, scale of 1-100): soybean AtHPPD SDS-10248, 14 days, average of 8 T1 individuals
Procedure: as §2, §3, §4, §1, §5

[8] = test system: soybean plants expressing mutated Arabidopsis HPPD; assay: Herbicide field trial; assay type: in vivo, Glycine max; details: 7 DAT with 50 g/ha, post-emergence V2-V3, 1% v/v MSO; preliminary assessment, FIG. 7
Procedure: (§6) Transgenic plants expressing heterologous HPPD or HST enzymes are tested for tolerance against HPPD-inhibiting herbicides in field experiments.
(§7) A study can be conducted at a field trial location to evaluate the effect of HPPD herbicides on the phenotypic and phenologic characteristics of a soybean variety containing different transgenes.
(§8) The trial is designed as a randomized complete block with a split-plot treatment design. The trial contains mainplots defined by ‘herbicide treatment’ (combination of herbicide and application rate). The herbicide treatments are applied post-emergence at the V2-V3 plant growth stage. […]
(§9) Each plot consists of a single row 1.2 m long and adjacent plots are spaced 0.76 m apart. […] The zygosity of each plant of transgenic event is determined prior to the application of the herbicide treatment.
(§10) The effect of the HPPD herbicide treatments on phenotypic and phenologic characteristics of plants representing each transgenic event and control variety, including tolerance to each herbicide treatment, is assessed during different vegetative and reproductive stages of plant growth.
(§11) An analysis of variance is conducted on data collected from each subplot and a Student's T test or Tukey's test is calculated where appropriate to compare means. […]

[9] = test system: untransformed control soybean plants (Jake); assay: Herbicide field trial; assay type: in vivo, Glycine max; details: 7 DAT with 50 g/ha, post-emergence V2-V3, 1% v/v MSO; preliminary assessment, FIG. 7
Procedure: as §6, §7, §8, §9, §10, §11

| SMILES | Tolerance factor [1] | Tolerance factor [2] | Tolerance factor [3] | Injury evaluation (bleaching phenotype, scale of 1-100) ([4]; 6.25 g/ha) | Injury evaluation (bleaching phenotype, scale of 1-100) ([4]; 25 g/ha) | Injury evaluation (bleaching phenotype, scale of 1-100) ([4]; 100 g/ha) | Injury evaluation (bleaching phenotype, scale of 1-100) ([5]; 6.25 g/ha) | Injury evaluation (bleaching phenotype, scale of 1-100) ([5]; 25 g/ha) | Injury evaluation (bleaching phenotype, scale of 1-100) ([5]; 100 g/ha) | Injury evaluation (bleaching phenotype, scale of 1-100) ([6]; 6.25 g/ha) | Injury evaluation (bleaching phenotype, scale of 1-100) ([6]; 25 g/ha) | Injury evaluation (bleaching phenotype, scale of 1-100) ([6]; 100 g/ha) | fold tolerance compared to untransformed wild-type ([7]; soy plants with SEQ ID NO:53, 100 g/ha) | Injury evaluation (bleaching phenotype, scale of 1-100) ([7]; 6.25 g/ha) | Injury evaluation (bleaching phenotype, scale of 1-100) ([7]; 25 g/ha) | Injury evaluation (bleaching phenotype, scale of 1-100) ([7]; 100 g/ha) | field injury (in words) [8] | field injury (in words) [9] |
| --- | --- | --- | --- | --- | --- | --- | --- | --- | --- | --- | --- | --- | --- | --- | --- | --- | --- | --- |
| Cc1c(C(=O)c2cnn(C)c2O)ccc(S(C)(=O)=O)c1C1=NOCC1 [Inhibitor 1, [3-(4,5-dihydroisoxazol-3-yl)-2-methyl-4-methylsulfonyl-phenyl]-(5-hydroxy-1-methyl-pyrazol-4-yl)methanone] | 9 | 7.5 | 1 | 0% | 8% | 54% | 0% | 11% | 31% | 2% | 40% | 79% | 2 fold | 2% | 3% | 44% | low-moderate injury | severe herbicide damage |
| CS(=O)(=O)c1ccc(C(=O)C2C(=O)CCCC2=O)c([N+](=O)[O-])c1 [Inhibitor 2, 2-(4-methylsulfonyl-2-nitro-benzoyl)cyclohexane-1,3-dione] | 10 | 10 | 1 |  |  |  |  |  |  |  |  |  |  |  |  |  |  |  |

— patent US12065654B2, “Plants having increased tolerance to herbicides” (BASF SE, priority 2014, dated 2024)
